Patent publication US9133230B2, “Hydrazone derivatives having potent antitumor activity toward multi-drug resistant tumor cells” (THE UNITED STATES OF AMERICA AS REPRESENTED BY THE …, priority 2011, dated 2015)

Key:
Format in all cases: cell-based
[1] = test system: human colon adenocarcinoma Caco-2; test: MTS cytotoxicity assay, Caco-2; details: Homo sapiens, Caco-2, 48 h incubation
Experimental: (§1) In order to obtain information about the growth-inhibiting action of hydrazones reported in the present invention on tumor cells, growth inhibition was assessed for the following human tumor cell lines: human myelogenous leukemia K562, human cervical adenocarcinoma HeLa, human colon adenocarcinoma Caco-2, human colon carcinoma HT-29, human colon carcinoma HCT-15, and human breast carcinoma MCF-7.
(§2) The K562, HeLa, HT-29, HCT-15, Caco-2, and MCF-7 cell lines were obtained from the American type Culture Collection (ATCC, Manassas, Va.). K562 cells were maintained in RPMI 1640 medium (Gibco/Life Technologies, Gaithersburg, Md.) containing 10% heat-inactivated fetal bovine serum (FBS) (Atlanta Biologicals, Atlanta, Ga.) and 10000 U/L penicillin and 50 mg/L streptomycin. HeLa, HT-29, HCT-15, Caco-2 and MCF-7 cells were maintained in MEM with Earl's balanced salts, 10% FBS, penicillin, and streptomycin as above. Logarithmically growing HT-29, Caco-2, and MCF-7 cells were incubated with 0.05% trypsin containing 1 mM EDTA at 37° C. for about 5 min until cells were nonadherent and formed a single cell suspension. Trypsin activity was neutralized by adding 20-fold excess of the serum-containing medium. Cells were cultured at 37° C. in an atmosphere of air and 5% CO2.
(§3) Cytotoxicity assays were conducted by tetrazolium reduction of 3-(4,5-dimethylthiazol-2-yl)-5-(3-carboxymethoxyphenyl)-2-(4-sulfophenyl)-2H-tetrazolium (MTS) with N-methylphenazonium methyl sulfate (PMS) (CellTiter Assay, Promega, Madison, Wis.). Logarithmically growing cells were plated in 0.1 mL aliquots in 96-well microtiter plates. Cells were plated at an initial density of about 5000 cells/mL and allowed to acclimatize for 24 h. Cell suspensions were treated with various dilutions of compounds in triplicate, mixed well, and allowed to incubate for 48 h at 37° C. in an atmosphere of air and 5% CO2. To the cell suspension was added 20 μL of tetrazolium reagent, the mixture was incubated for 2 h at 37° C. in an atmosphere of air and 5% CO2, and absorbance at 490 nm was read by microplate reader. Control plates with serial dilutions of cell types were counted as a control for the assay. In all cases, controls indicated a linear response versus cell number, R^2≧0.99.

[2] = test system: human breast carcinoma MCF-7; test: MTS cytotoxicity assay, MCF-7; details: Homo sapiens, MCF7, 48 h incubation
Experimental: as §1, §2, §3

leukemia cell lines = test: NCI 60 human tumor cell line screen, leukemia; details: Homo sapiens, arithmetic mean of two to nine cancer cell lines, read-out: Inhibitory concentration GI50, leukemia
Description: (§4) Selected compounds were submitted for testing in the organ-specific panel of human tumor cell lines at the National Cancer Institute, Bethesda, Md. This screen utilized 60 human tumor cell lines, representing leukemia, melanoma, and cancers of the lung, colon, brain, ovary, kidney, prostate, and breast (Boyd, M. R., “Status of the NCl preclinical antitumor drug discovery screen”. In Principles and practice of oncology updates; De Vita, V. T., Jr. Hellman, S., Rosenberg, S. A., Eds.; Lippincott: Philadelphia, Pa., 1989; Vol. 3, pp 1-12).
(§5) The MG MID value is the average of the GI50 values for all the cell lines tested for drug concentrations in the range of 10^−4-10^−8 M (See website domain: dtp.nci.nih.gov/dtp).

colon cancer cell lines = test: NCI 60 human tumor cell line screen, colon; details: Homo sapiens, arithmetic mean of two to nine cancer cell lines, read-out: Inhibitory concentration GI50, colon
Description: as §4, §5

CNS cancer cell lines = test: NCI 60 human tumor cell line screen, CNS; details: Homo sapiens, arithmetic mean of two to nine cancer cell lines, read-out: Inhibitory concentration GI50, CNS
Description: as §4, §5

[3] = test system: prostate cancer cell lines; test: NCI 60 human tumor cell line screen, prostate; details: Homo sapiens, arithmetic mean of two to nine cancer cell lines, read-out: Inhibitory concentration GI50, prostrate
Description: as §4, §5

HL60 = test: MTS cytotoxicity on MDR tumor cells, HL60; details: Homo sapiens, HL-60, Vincristine (VCR) sensitive, 72 hr incubation
[4] = test system: human colorectal carcinoma HT29; test: Annexin-V FACS analysis of apoptosis; details: FIGS. 3 and 4, treated versus control cells
Experimental: This activation was through ERK signaling and not through JNK signaling, resulting in PARP cleavage after 16 h. […] Activation of NFkB (p50) was also observed following treatment with these compounds.

[5] = test system: human colorectal carcinoma HT29; test: Western blot of signal transduction pathways in HT29 cells; details: HT29, IC50 dose

**Q.** With `C(=NNc1ncnc2[nH]cnc12)c1ccccn1` [I-18, 6-(2-(Pyridin-2-ylmethylene)hydrazinyl)-9H-purine] as the compound, how does the GI50 [1] read?
**A.** 2200 nM

**Q.** And the GI50 [2]?
**A.** 3200 nM

**Q.** And the GI50 (leukemia cell lines)?
**A.** 966 nM

**Q.** And the GI50 (colon cancer cell lines)?
**A.** 1370 nM

**Q.** And the GI50 (CNS cancer cell lines)?
**A.** 633 nM

**Q.** What about the GI50 [3] of the same compound?
**A.** 598 nM

**Q.** What about the GI50 (HL60) of the same compound?
**A.** 1200 nM

**Q.** What about the “Apoptosis (Annexin-V, FACS analysis)” value [4] of the same compound?
**A.** Apoptosis was also established

**Q.** And the “Activation of NFkB (p50)” value [5]?
**A.** observed
